Measured values from ChEMBL document CHEMBL3045271, “Synthesis and insecticidal activity of new phosphoramidates” (2012).

Legend:
Format in all cases: functional
Diaphania hyalinata [1] = test: Insecticidal activity against second-instar larvae of Diaphania hyalinata assessed as mortality at compound administered topically at 1 ug/mg insect measured after 24 hr
Plutella xylostella [2] = test: Insecticidal activity against second-instar larvae of Plutella xylostella (diamondback moth) assessed as mortality at compound administered topically at 1 ug/mg insect measured after 24 hr
Diaphania hyalinata [3] = test: Insecticidal activity against second-instar larvae of Diaphania hyalinata assessed as mortality at compound administered topically at 1 ug/mg insect measured after 72 hr
Ascia monuste [4] = test: Insecticidal activity against second-instar larvae of Ascia monuste assessed as mortality at compound administered topically at 1 ug/mg insect measured after 72 hr
Diaphania hyalinata [5] = test: Insecticidal activity against second-instar larvae of Diaphania hyalinata assessed as mortality at compound administered topically at 1 ug/mg insect measured after 48 hr
Plutella xylostella [6] = test: Insecticidal activity against second-instar larvae of Plutella xylostella (diamondback moth) assessed as mortality at compound administered topically at 1 ug/mg insect measured after 72 hr
Ascia monuste [7] = test: Insecticidal activity against second-instar larvae of Ascia monuste assessed as mortality at compound administered topically at 1 ug/mg insect measured after 24 hr
Plutella xylostella [8] = test: Insecticidal activity against second-instar larvae of Plutella xylostella (diamondback moth) assessed as mortality at compound administered topically at 1 ug/mg insect measured after 48 hr
Ascia monuste [9] = test: Insecticidal activity against second-instar larvae of Ascia monuste assessed as mortality at compound administered topically at 1 ug/mg insect measured after 48 hr

SMILES | mortality (Diaphania hyalinata [1]) | mortality (Plutella xylostella [2]) | mortality (Diaphania hyalinata [3]) | mortality (Ascia monuste [4]) | mortality (Diaphania hyalinata [5]) | mortality (Plutella xylostella [6]) | mortality (Ascia monuste [7]) | mortality (Plutella xylostella [8]) | mortality (Ascia monuste [9])
CCN(CC)P(=O)(Oc1occc1Cc1ccc(Br)cc1)N(CC)CC | 27.5% | 7.5% | 35% | 7.5% | 27.5% | 32.5% | 2.5% | 20% | 5%
CCN(CC)P(=O)(Oc1occc1Cc1ccc(C)cc1)N(CC)CC | 25% | 20% | 30% | 17.5% | 25% | 32.5% | 5% | 25% | 15%
O=P(NC1CCCCC1)(NC1CCCCC1)Oc1ccco1 | 2.5% | 2.5% | 10% | 70% | 2.5% | 12.5% | 70% | 7.5% | 70%
CCN(CC)P(=O)(Oc1ccco1)N(CC)CC | 22.5% | 7.5% | 25% | 12.5% | 22.5% | 22.5% | 2.5% | 10% | 10%
COP(=S)(OC)Oc1nc(Cl)c(Cl)cc1Cl [CHLORPYRIFOS-METHYL] | 100% | 100% | 100% | 100% | 100% | 100% | 100% | 100% | 100%
CCN(CC)P(=O)(Oc1occc1Cc1cccc(F)c1)N(CC)CC | 23.3% | 30% | 36.6% | 15% | 23.3% | 52.5% | 5% | 42.5% | 17.5%
CCN(CC)P(=O)(Oc1ccco1)Oc1ccco1 | 55% | 17.5% | 70% | 67.5% | 55% | 30% | 62.5% | 20% | 65%
CCN(CC)P(=O)(Oc1occc1Cc1ccccc1F)N(CC)CC | 23.3% | 12.5% | 23.3% | 32.5% | 23.3% | 35% | 22.5% | 22.5% | 27.5%
CCN(CC)P(=O)(Oc1occc1Cc1cccc(C)c1)N(CC)CC | 15% | 22.5% | 15% | 12.5% | 15% | 45% | 7.5% | 40% | 12.5%
CCN(CC)P(=O)(Oc1occc1Cc1ccccc1)N(CC)CC | 5% | 25% | 5% | 25% | 5% | 45% | 22.5% | 30% | 27.5%
O=P(Oc1ccco1)(N1CCCCC1)N1CCCCC1 | 7.5% | 5% | 10% | 75% | 7.5% | 20% | 70% | 10% | 75%
CCN(CC)P(=O)(Oc1occc1Cc1c(C)cccc1Cl)N(CC)CC | 20% | 5.3% | 20% | 20% | 20% | 37.5% | 5% | 20% | 15%
O=C1C=CCO1 [FURAN-2(5H)-ONE] | 18.9% | 27.5% | 24.3% | 25% | 18.9% | 32.5% | 12.5% | 27.5% | 22.5%
CCN(CC)P(=O)(Oc1occc1Cc1ccccc1Cl)N(CC)CC | 10% | 20% | 10% | 5% | 10% | 45% | 5% | 32.5% | 5%
CCN(CC)P(=O)(Oc1occc1Cc1cccc(Cl)c1)N(CC)CC | 12.5% | 5% | 12.5% | 12.5% | 12.5% | 37.5% | 0% | 22.5% | 7.5%
CCN(CC)P(=O)(Oc1occc1Cc1cccc(Br)c1)N(CC)CC | 25% | 27.5% | 27.5% | 10% | 25% | 47.5% | 2.5% | 32.5% | 7.5%
Cc1ccc(CC2=CCOC2=O)cc1 | 10% | 12.5% | 12.5% | 17.5% | 10% | 25% | 5% | 17.5% | 12.5%
O=P(Oc1ccco1)(Oc1ccco1)N1CCCCC1 | 7.5% | 5% | 17.5% | 90% | 7.5% | 10% | 87.5% | 5% | 87.5%
